Experimental data as given in USRE41149E1, “Optically active pyridonecarboxylic acid derivatives” (Daiichi Sankyo Company, Limited, priority 1988, dated 2010).
≈ marks a conversion by molar mass, not a printed value. Where a name gives a salt, the structure may show the parent alone.

Tests used:
[1] = system: S. aureus, 209 P; assay: Antimicrobial activity (MIC), standard method of Nippon Kagakuryoho Gakkai; assay type: cell-based; settings: for MIC: Staphylococcus aureus
Experimental: (§1) Antimicrobial activity of the optically active compounds prepared in Examples was evaluated in accordance with the standard method specified by Nippon […], and results obtained are shown in Table 1 which precedes the claims herein in terms of minimum inhibitory concentration (MIC: […]).

[2] = system: Ser. marcescens, 10100; assay: as above; assay type: cell-based; settings: for Antimicrobial activity (MIC): Ser. marcescens; for MIC: Serratia marcescens, 10100, Ser. marcescens
Experimental: as §1

[3] = system: Pr. vulgaris, 08601; assay: as above; assay type: cell-based; settings: for MIC: Proteus vulgaris
Experimental: as §1

[4] = system: Ps. aeruginosa, 32104; assay: as above; assay type: cell-based; settings: for Antimicrobial activity (MIC): Ps. aeruginosa; for MIC: Pseudomonas aeruginosa, 32104, Ps. aeruginosa
Experimental: as §1

[5] = system: Ps. aeruginosa, 32121; assay: as above; assay type: cell-based; settings: for Antimicrobial activity (MIC): Ps. aeruginosa; for MIC: Pseudomonas aeruginosa, 32121, Ps. aeruginosa
Experimental: as §1

[6] = system: S. epidermidis, 56500; assay: as above; assay type: cell-based; settings: for Antimicrobial activity (MIC): S. epidermidis; for MIC: Staphylococcus epidermidis, 56500, S. epidermidis
Experimental: as §1

[7] = system: E. coli., NIHJ; assay: as above; assay type: cell-based; settings: for MIC: Escherichia coli
Experimental: as §1

[8] = system: Str. faecalis, ATCC 19433; assay: as above; assay type: cell-based; settings: for Antimicrobial activity (MIC): Str. faecalis; for MIC: Enterococcus faecalis, ATCC19433, Str. faecalis
Experimental: as §1

Compound	Antimicrobial activity (MIC) [1] [µg/mL]	Antimicrobial activity (MIC) [2] [µg/mL]	Antimicrobial activity (MIC) [3] [µg/mL]	Antimicrobial activity (MIC) [4] [µg/mL]	Antimicrobial activity (MIC) [5] [µg/mL]	Antimicrobial activity (MIC) [6] [µg/mL]	Antimicrobial activity (MIC) [7] [µg/mL]	Antimicrobial activity (MIC) [8] [µg/mL]	MIC [1] [µg/mL]	MIC [2] [µg/mL]	MIC [3] [µg/mL]	MIC [4] [µg/mL]	MIC [5] [µg/mL]	MIC [6] [µg/mL]	MIC [7] [µg/mL]	MIC [8] [µg/mL]	melting point [°C]
N[C@H]1CCN(c2cc3c(cc2F)c(=O)c(C(=O)O)cn3[C@@H]2C[C@@H]2F)C1 (relative stereo) [Compound 9b, 7-[3-(S)-Amino-1-pyrrolidinyl]-6-fluoro-1-(1,2-cis-2-fluorocyclopropyl)-4-oxo-1,4-dihydroquinoline-3-carboxylic acid]	<0.1	0.10	<0.1	0.10	<0.1	0.39	<0.1	0.79	–	–	–	–	–	–	–	–	–
Nc1c(F)c(N2CC(N)C3(CC3)C2)c(F)c2c1c(=O)c(C(=O)O)cn2[C@@H]1C[C@@H]1F (relative stereo) [Compound 56b, 5-Amino-7-(7-amino-5-azaspiro[2,4]heptan-5-yl)-6,8-difluoro-1-(1,2-cis-2-fluoro-1-cyclopropyl) 4-oxo-1,4-dihydroquinoline-3-carboxylic acid]	<0.1	<0.1	<0.1	<0.1	<0.1	<0.1	<0.1	0.10	–	–	–	–	–	–	–	–	–
CC1(C)CN(c2c(F)cc3c(=O)c(C(=O)O)cn([C@@H]4C[C@@H]4F)c3c2Cl)CC1N (single isomer, unassigned; (-)) [Compound 59b]	–	–	–	–	–	–	–	–	< 0.1	< 0.1	< 0.1	0.2 (≈ 0.486 µM)	< 0.1	< 0.1	< 0.1	0.1 (≈ 0.243 µM)	118 to 121
(+)-7-[3-(S)-Amino-1-pyrrolidinyl]-8-chloro-6-fluoro-1-(1,2-cis-2-fluoro-1-cyclopropyl)-4-oxo-1,4-dihydroquinoline-3-carboxylic acid [Compound 13a]	<0.1	<0.1	<0.1	<0.1	<0.1	<0.1	<0.1	0.20	–	–	–	–	–	–	–	–	–
(−)-5-Amino-7-[3-(S)-amino-1-pyrrolidinyl]-6,8-difluoro-1-(1,2-cis-2-fluoro-1-cyclopropyl)-4-oxo-1,4-dihydroquinoline-3-carboxylic acid [Compound 18a]	<0.1	<0.1	<0.1	<0.1	<0.1	<0.1	<0.1	0.20	–	–	–	–	–	–	–	–	–
C[C@H]1C[C@H](N)CN1c1nc2c(cc1F)c(=O)c(C(=O)O)cn2[C@@H]1C[C@@H]1F (relative stereo) [Compound 31b, 7-[4-(S)-Amino-2-(S)-methyl-1-pyrrolidinyl]-6-fluoro-1-(1,2-cis-2-fluoro-1-cyclopropyl)-4-oxo-1,4-dihydro-1,8-naphthyridine-3-carboxylic acid]	<0.1	0.10	<0.1	0.20	0.10	0.20	<0.1	0.39	–	–	–	–	–	–	–	–	–
NC1CN(c2c(F)cc3c(=O)c(C(=O)O)cn([C@@H]4C[C@@H]4F)c3c2Cl)CC12CCC2 (relative stereo) [Compound 58b, (−)-7-(8-amino-6-azaspiro[3.4]octane-6-yl)-8-chloro-6-fluoro-1-(1,2-cis-2-fluoro-1-cyclopropyl)-1,4-dihydro-4-oxoquinoline-3-carboxylic acid]	<0.1	<0.1	<0.1	0.10	<0.1	<0.1	<0.1	<0.1	–	–	–	–	–	–	–	–	–
(+)-5-Amino-7-[3-(S)-amino-1-pyrrolidinyl]-6,8-difluoro-1-(1,2-cis-2-fluoro-1-cyclopropyl)-4-oxo-1,4-dihydroquinoline-3-carboxylic acid [Compound 18b]	<0.1	<0.1	<0.1	<0.1	<0.1	<0.1	<0.1	0.10	–	–	–	–	–	–	–	–	–
NC1CN(c2c(F)cc3c(=O)c(C(=O)O)cn([C@@H]4C[C@@H]4F)c3c2Cl)CC12CC2 (relative stereo) [Compound 26bb, (−)-7-(7-Amino-5-azaspiro[2.4]heptan-5-yl)-8-chloro-6-fluoro-1-(1,2-cis-2-fluoro-1-cylcopropyl)-1,4-dihydro-4-oxoquinoline-3-carboxylic acid]	<0.1	<0.1	<0.1	<0.1	<0.1	<0.1	<0.1	0.20	–	–	–	–	–	–	–	–	–
(−)-7-[3-(S)-Amino-1-pyrrolidinyl]-8-chloro-6-fluoro-1-(1,2-cis-2-fluoro-1-cyclopropyl)-4-oxo-1,4-dihydroquinoline-3-carboxylic acid [Compound 13b]	<0.1	<0.1	<0.1	<0.1	<0.1	<0.1	<0.1	0.20	–	–	–	–	–	–	–	–	–
Cc1c(N2CC[C@@H]([C@H](C)N)C2)c(F)cc2c(=O)c(C(=O)O)cn(C3CC3F)c12 (single isomer, unassigned; (-)) (as salt: hydrochloride) [Compound 54b]	–	–	–	–	–	–	–	–	–	–	–	–	–	–	–	–	149 to 153
N[C@H]1CCN(c2cc3c(cc2F)c(=O)c(C(=O)O)cn3[C@@H]2C[C@@H]2F)C1 (relative stereo) [Compound 9a, 7-[3-(S)-Amino-1-pyrrolidinyl]-6-fluoro-1-(1,2-cis-2-fluorocyclopropyl)-4-oxo-1,4-dihydroquinoline-3-carboxylic acid]	0.10	0.20	<0.1	0.39	0.10	0.39	0.10	1.57	–	–	–	–	–	–	–	–	–
Cc1c(N2CC[C@@H]([C@H](C)N)C2)c(F)cc2c(=O)c(C(=O)O)cn(C3CC3F)c12 (single isomer, unassigned; (-)) [Compound 54b, hydrochloride]	–	–	–	–	–	–	–	–	< 0.1	0.1	< 0.1	0.2	0.1	< 0.1	< 0.1	0.1	–
C[C@H](N)[C@@H]1CCN(c2c(F)cc3c(=O)c(C(=O)O)cn(C4CC4F)c3c2Cl)C1 (single isomer, unassigned; (-)) [Compound 34b]	–	–	–	–	–	–	–	–	< 0.1	< 0.1	< 0.1	0.1 (≈ 0.243 µM)	< 0.1	< 0.1	< 0.1	< 0.1	204 to 207
NC1CN(c2c(F)cc3c(=O)c(C(=O)O)cn(C4CC4F)c3c2Cl)CC12CC2 (single isomer, unassigned) [Compound 26ab]	<0.1	<0.1	<0.1	0.20	<0.1	0.10	<0.1	0.20	–	–	–	–	–	–	–	–	–
NC1CN(c2c(F)cc3c(=O)c(C(=O)O)cn(C4CC4F)c3c2Cl)CC12CC2 (single isomer, unassigned) [Compound 26aa]	–	–	<0.1	–	–	–	<0.1	–	< 0.1	0.1 (≈ 0.244 µM)	–	0.39 (≈ 0.952 µM)	0.1 (≈ 0.244 µM)	0.2 (≈ 0.488 µM)	–	0.39 (≈ 0.952 µM)	–
NC1CN(c2c(F)cc3c(=O)c(C(=O)O)cn(C4CC4F)c3c2Cl)CC12CC2 (centres unmarked) [Compound 26ba]	<0.1	<0.1	–	0.20	0.10	0.20	–	0.39	–	–	< 0.1	–	–	–	< 0.1	–	–
